# Results as given in US20220071932A1, “Compositions and Methods Against Stress-Induced Affective Disorders and Their Associated Symptoms” (The Trustees of Columbia University in the City of New York, priority 2019, published 2022).
# What was measured:
# 129S6/SvEv mice = test: Forced swim test (FST); immobility time; format: in vivo; settings: for p, Fisher's PLSD Saline vs. drug, FST Day 2 Immobility Time (sec): drug 1 week before stress; for p, Fisher's PLSD Saline vs. drug, FST Day 2 Immobility Time Min 1 (s) / p, Fisher's PLSD Saline vs. drug, FST Day 2 Immobility Time Min 2 (s) / p, Fisher's PLSD Saline vs. drug, FST Day 2 Immobility Time Min 3 (s) / p, Fisher's PLSD Saline vs. drug, FST Day 2 Immobility Time Min 4 (s) / p, Fisher's PLSD Saline vs. drug, FST Day 2 Immobility Time Min 5 (s) / p, Fisher's PLSD Saline vs. drug, FST Day 2 Immobility Time Min 6 (s) / p, Fisher's PLSD Saline vs. drug, FST Day 2 Immobility Time (s) / p, Immobility Time (s), FST Day 2, (R,S)-ketamine vs. FENM / p, Immobility Time (s), FST Day 2, Saline vs. drug: drug 5 minutes after stress; for p, Fisher's PLSD Saline vs. drug, FST Day 2 Immobility Time Min 1 (s) / p, Fisher's PLSD Saline vs. drug, FST Day 2 Immobility Time Min 2 (s) / p, Fisher's PLSD Saline vs. drug, FST Day 2 Immobility Time Min 3 (s) / p, Fisher's PLSD Saline vs. drug, FST Day 2 Immobility Time Min 4 (s) / p, Fisher's PLSD Saline vs. drug, FST Day 2 Immobility Time Min 5 (s) / p, Fisher's PLSD Saline vs. drug, FST Day 2 Immobility Time Min 6 (s): FIG. 2F; for p, Fisher's PLSD Saline vs. drug, FST Day 2 Immobility Time (s): FIG. 2G; for Forced Swim Test Day 1, Immobility Time Min 1 (sec), p (Fisher's LSD) / Forced Swim Test Day 1, Immobility Time Min 2 (sec), p (Fisher's LSD) / Forced Swim Test Day 1, Immobility Time Min 3 (sec), p (Fisher's LSD) / Forced Swim Test Day 1, Immobility Time Min 4 (sec), p (Fisher's LSD) / Forced Swim Test Day 1, Immobility Time Min 5 (sec), p (Fisher's LSD) / Forced Swim Test Day 1, Immobility Time Min 6 (sec), p (Fisher's LSD): FIG. 8H; for p, Immobility Time (s), FST Day 2, (R,S)-ketamine vs. FENM: (R,S)-ketamine 30 mg/kg vs. FENM 20 mg/kg
# Method: The FST was administered as previously described (47). Briefly, mice were placed into clear plastic buckets 20 cm in diameter and 23 cm deep filled ⅔ of the way with 22° C. water. Mice were videotaped from the side for 6 min and were exposed to the swim test on 2 consecutive days Immobility time was scored by an experimenter blind to the experimental groups.
# NMDAR = settings: relative to (R,S)-ketamine; cited from earlier work
# [1] = (R,S)-ketamine (30 mg/kg) vs. FENM (20 mg/kg)
# [2] = Fisher's LSD, Baseline cohort, FENM 20 mg/kg, FIG. 6D
# [3] = non-stressed mice, FENM 20 mg/kg 1 hour before the start of the FST, vs saline
compound,measurement,setting,value
"NC12CC3CC(C1)CC(CCF)(C3)C2 [FENM, 1-amino-3-fluoroethyl-adamantane]","p, Fisher's PLSD Saline vs. drug, FST Day 2 Immobility Time (sec)","129S6/SvEv mice; 10 mg/kg, after ANOVA, FIG. 1G",0.0307
same,"p, Fisher's PLSD Saline vs. drug, FST Day 2 Immobility Time (sec)","129S6/SvEv mice; 10 mg/kg, after RMANOVA, FIG. 1F",0.0085
same,"p, Fisher's PLSD Saline vs. drug, FST Day 2 Immobility Time Min 1 (s)",129S6/SvEv mice; 10 mg/kg,0.3105
same,"p, Fisher's PLSD Saline vs. drug, FST Day 2 Immobility Time Min 2 (s)",129S6/SvEv mice; 10 mg/kg,0.2275
same,"p, Fisher's PLSD Saline vs. drug, FST Day 2 Immobility Time Min 3 (s)",129S6/SvEv mice; 10 mg/kg,0.0949
same,"p, Fisher's PLSD Saline vs. drug, FST Day 2 Immobility Time Min 4 (s)",129S6/SvEv mice; 10 mg/kg,0.1329
same,"p, Fisher's PLSD Saline vs. drug, FST Day 2 Immobility Time Min 5 (s)",129S6/SvEv mice; 10 mg/kg,0.4763
same,"p, Fisher's PLSD Saline vs. drug, FST Day 2 Immobility Time Min 6 (s)",129S6/SvEv mice; 10 mg/kg,0.4453
same,"p, Fisher's PLSD Saline vs. drug, FST Day 2 Immobility Time (s)","129S6/SvEv mice; 10 mg/kg, after ANOVA",0.0204
same,"p, Fisher's PLSD Saline vs. drug, FST Day 2 Immobility Time (sec)","129S6/SvEv mice; 20 mg/kg, after ANOVA, FIG. 1G",<0.0001
same,"p, Fisher's PLSD Saline vs. drug, FST Day 2 Immobility Time (sec)","129S6/SvEv mice; 20 mg/kg, after RMANOVA, FIG. 1F",<0.0001
same,"p, Fisher's PLSD Saline vs. drug, FST Day 2 Immobility Time (sec)","129S6/SvEv mice; 30 mg/kg, after ANOVA, FIG. 1G",0.0005
same,"p, Fisher's PLSD Saline vs. drug, FST Day 2 Immobility Time (sec)","129S6/SvEv mice; 30 mg/kg, after RMANOVA, FIG. 1F",0.0003
same,"p, Fisher's PLSD Saline vs. drug, FST Day 2 Immobility Time Min 1 (s)",129S6/SvEv mice; 30 mg/kg,0.9988
same,"p, Fisher's PLSD Saline vs. drug, FST Day 2 Immobility Time Min 2 (s)",129S6/SvEv mice; 30 mg/kg,<0.0001
same,"p, Fisher's PLSD Saline vs. drug, FST Day 2 Immobility Time Min 3 (s)",129S6/SvEv mice; 30 mg/kg,0.2804
same,"p, Fisher's PLSD Saline vs. drug, FST Day 2 Immobility Time Min 4 (s)",129S6/SvEv mice; 30 mg/kg,0.4890
same,"p, Fisher's PLSD Saline vs. drug, FST Day 2 Immobility Time Min 5 (s)",129S6/SvEv mice; 30 mg/kg,0.8673
same,"p, Fisher's PLSD Saline vs. drug, FST Day 2 Immobility Time Min 6 (s)",129S6/SvEv mice; 30 mg/kg,0.6591
same,"p, Fisher's PLSD Saline vs. drug, FST Day 2 Immobility Time (s)","129S6/SvEv mice; 30 mg/kg, after ANOVA",0.0210
same,"immobility time, day 2 of the FST","129S6/SvEv mice; 5 minutes after CFC, re-exposure 1 day after training, (R,S)-ketamine 30 mg/kg, FENM 20 mg/kg, vs saline",significantly reduced immobility time
same,"Forced Swim Test Day 1, Immobility Time Min 1 (sec), p (Fisher's LSD)",129S6/SvEv mice; [1],0.2548
same,"Forced Swim Test Day 1, Immobility Time Min 2 (sec), p (Fisher's LSD)",129S6/SvEv mice; [1],0.5009
same,"Forced Swim Test Day 1, Immobility Time Min 3 (sec), p (Fisher's LSD)",129S6/SvEv mice; [1],0.4155
same,"Forced Swim Test Day 1, Immobility Time Min 4 (sec), p (Fisher's LSD)",129S6/SvEv mice; [1],0.7067
same,"Forced Swim Test Day 1, Immobility Time Min 5 (sec), p (Fisher's LSD)",129S6/SvEv mice; [1],0.3041
same,"Forced Swim Test Day 1, Immobility Time Min 6 (sec), p (Fisher's LSD)",129S6/SvEv mice; [1],0.8903
same,"Forced Swim Test Day 2, Immobility Time (sec), p (Fisher's LSD)","129S6/SvEv mice; (R,S)-ketamine (30 mg/kg) vs. FENM (20 mg/kg), after ANOVA, FIG. 8K",0.0713
same,"Forced Swim Test Day 2, Immobility Time (sec), p (Fisher's LSD)","129S6/SvEv mice; (R,S)-ketamine (30 mg/kg) vs. FENM (20 mg/kg), after RMANOVA, FIG. 8J",0.0712
same,Behavior: Depressive-like,"129S6/SvEv mice; Antidepressant (5 min after stress), dose 10 mg/kg",↓
same,Behavior: Depressive-like,"129S6/SvEv mice; Antidepressant (5 min after stress), dose 20 mg/kg",↓
same,Behavior: Depressive-like,"129S6/SvEv mice; Antidepressant (5 min after stress), dose 30 mg/kg",↓
same,Behavior: Depressive-like,"129S6/SvEv mice; Antidepressant (5 min after stress; extinction), dose 20 mg/kg",↓
same,"p, Immobility Time Min 1 (sec), FST Day 2, Saline vs. FENM",129S6/SvEv mice; [2],0.3330
same,"p, Immobility Time Min 2 (sec), FST Day 2, Saline vs. FENM",129S6/SvEv mice; [2],0.4156
same,"p, Immobility Time Min 3 (sec), FST Day 2, Saline vs. FENM",129S6/SvEv mice; [2],0.0346
same,"p, Immobility Time Min 4 (sec), FST Day 2, Saline vs. FENM",129S6/SvEv mice; [2],0.2905
same,"p, Immobility Time Min 5 (sec), FST Day 2, Saline vs. FENM",129S6/SvEv mice; [2],0.6448
same,"p, Immobility Time Min 6 (sec), FST Day 2, Saline vs. FENM",129S6/SvEv mice; [2],0.5256
same,"p, Immobility Time (s), FST Day 2, (R,S)-ketamine vs. FENM","129S6/SvEv mice; Fisher's PLSD after ANOVA, FIG. 3K",0.0014
same,"p, Immobility Time (s), FST Day 2, Saline vs. drug","129S6/SvEv mice; Fisher's PLSD after ANOVA, FENM 20 mg/kg, (R,S)-ketamine 30 mg/kg, FIG. 3K",0.0097
same,"p, Immobility Time (s), FST Day 2, (R,S)-ketamine vs. FENM","129S6/SvEv mice; Fisher's PLSD after RMANOVA, FIG. 3J",0.0069
same,"p, Immobility Time (s), FST Day 2, Saline vs. drug","129S6/SvEv mice; Fisher's PLSD after RMANOVA, FENM 20 mg/kg, (R,S)-ketamine 30 mg/kg, FIG. 3J",0.0234
same,Behavior: Depressive-like,"129S6/SvEv mice; Prophylactic (7 days before stress), dose 10 mg/kg",↓
same,Behavior: Depressive-like,"129S6/SvEv mice; Prophylactic (7 days before stress), dose 20 mg/kg",↓
same,Behavior: Depressive-like,"129S6/SvEv mice; Prophylactic (7 days before stress), dose 30 mg/kg",↓
same,"Forced Swim Test Day 1, Immobility Time Min 1 (sec), p (Fisher's LSD)",129S6/SvEv mice; Saline vs. FENM (20 mg/kg),<0.0001
same,"Forced Swim Test Day 1, Immobility Time Min 2 (sec), p (Fisher's LSD)",129S6/SvEv mice; Saline vs. FENM (20 mg/kg),0.0752
same,"Forced Swim Test Day 1, Immobility Time Min 3 (sec), p (Fisher's LSD)",129S6/SvEv mice; Saline vs. FENM (20 mg/kg),0.0422
same,"Forced Swim Test Day 1, Immobility Time Min 4 (sec), p (Fisher's LSD)",129S6/SvEv mice; Saline vs. FENM (20 mg/kg),0.4348
same,"Forced Swim Test Day 1, Immobility Time Min 5 (sec), p (Fisher's LSD)",129S6/SvEv mice; Saline vs. FENM (20 mg/kg),0.8223
same,"Forced Swim Test Day 1, Immobility Time Min 6 (sec), p (Fisher's LSD)",129S6/SvEv mice; Saline vs. FENM (20 mg/kg),0.0677
same,"Forced Swim Test Day 2, Immobility Time (sec), p (Fisher's LSD)","129S6/SvEv mice; Saline vs. FENM (20 mg/kg), after ANOVA, FIG. 8K",0.3636
same,"Forced Swim Test Day 2, Immobility Time (sec), p (Fisher's LSD)","129S6/SvEv mice; Saline vs. FENM (20 mg/kg), after RMANOVA, FIG. 8J",0.3085
same,"p, Fisher's PLSD Saline vs. drug, FST Day 2 Immobility Time Min 1 (s)",129S6/SvEv mice; dose (20),0.0237
same,"p, Fisher's PLSD Saline vs. drug, FST Day 2 Immobility Time Min 2 (s)",129S6/SvEv mice; dose (20),0.0034
same,"p, Fisher's PLSD Saline vs. drug, FST Day 2 Immobility Time Min 3 (s)",129S6/SvEv mice; dose (20),0.0763
same,"p, Fisher's PLSD Saline vs. drug, FST Day 2 Immobility Time Min 4 (s)",129S6/SvEv mice; dose (20),0.1586
same,"p, Fisher's PLSD Saline vs. drug, FST Day 2 Immobility Time Min 5 (s)",129S6/SvEv mice; dose (20),0.0575
same,"p, Fisher's PLSD Saline vs. drug, FST Day 2 Immobility Time Min 6 (s)",129S6/SvEv mice; dose (20),0.2137
same,"p, Fisher's PLSD Saline vs. drug, FST Day 2 Immobility Time (s)","129S6/SvEv mice; dose (20), after ANOVA",0.0024
same,"immobility, day 1 of the FST",129S6/SvEv mice; [3],comparable
same,"immobility, day 2 of the FST",129S6/SvEv mice; [3],comparable
same,"p, Immobility Time (sec), FST Day 1, Saline vs. FENM","129S6/SvEv mice; t-test, Baseline cohort, FENM 20 mg/kg, FIG. 6C",0.7086
same,"p, Immobility Time (sec), FST Day 2, Saline vs. FENM","129S6/SvEv mice; t-test, Baseline cohort, FENM 20 mg/kg, FIG. 6E",0.7847
same,affinity as NMDAR antagonist,NMDAR,"lower affinity than (R,S)-ketamine"
